Measured values as given in PubChem BioAssay (NCI).
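GI50 marks 50% less growth. TGI is the concentration that stops growth completely.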

How the values were obtained:
Assay in all cases: growth of human tumour cells (NCI), 384-well format
SF-268 CNS = system: SF-268 CNS
SR leukemia = system: SR leukemia
EKVX NSCLC = system: EKVX NSCLC
K-562 leukemia = system: K-562 leukemia
NCI-H23 lung = system: NCI-H23 lung
A498 renal = system: A498 renal
UACC-257 melanoma = system: UACC-257 melanoma
OVCAR-3 ovarian = system: OVCAR-3 ovarian
HT29 colon = system: HT29 colon
KM12 colon = system: KM12 colon
MDA-MB-468 breast = system: MDA-MB-468 breast
SW-620 colon = system: SW-620 colon
DU-145 prostate = system: DU-145 prostate
HL-60(TB) leukemia = system: HL-60(TB) leukemia
M14 melanoma = system: M14 melanoma
SN12C renal = system: SN12C renal
MDA-MB-231 breast = system: MDA-MB-231 breast
OVCAR-5 ovarian = system: OVCAR-5 ovarian
SK-OV-3 ovarian = system: SK-OV-3 ovarian
HCT-116 colon = system: HCT-116 colon
NCI-H460 NSCLC = system: NCI-H460 NSCLC
RXF 393 renal = system: RXF 393 renal
MCF7 breast = system: MCF7 breast
NCI-H522 lung = system: NCI-H522 lung
SK-MEL-5 melanoma = system: SK-MEL-5 melanoma
LOX IMVI melanoma = system: LOX IMVI melanoma
HCT-15 colon = system: HCT-15 colon
SNB-19 CNS = system: SNB-19 CNS
OVCAR-4 ovarian = system: OVCAR-4 ovarian
A549 NSCLC = system: A549 NSCLC
HOP-92 NSCLC = system: HOP-92 NSCLC
SF-539 CNS = system: SF-539 CNS
RPMI-8226 leukemia = system: RPMI-8226 leukemia
SF-295 CNS = system: SF-295 CNS
CCRF-CEM leukemia = system: CCRF-CEM leukemia
OVCAR-8 ovarian = system: OVCAR-8 ovarian
CAKI-1 renal = system: CAKI-1 renal
SK-MEL-28 melanoma = system: SK-MEL-28 melanoma
NCI-H226 lung = system: NCI-H226 lung
ACHN renal = system: ACHN renal
PC-3 prostate = system: PC-3 prostate
U251 glioblastoma = system: U251 glioblastoma
MOLT-4 leukemia = system: MOLT-4 leukemia
BT-549 breast = system: BT-549 breast
HCC-2998 colon = system: HCC-2998 colon
UO-31 renal = system: UO-31 renal
NCI-H322M lung = system: NCI-H322M lung
IGROV1 ovarian = system: IGROV1 ovarian
COLO 205 colon = system: COLO 205 colon
MDA-MB-435 melanoma = system: MDA-MB-435 melanoma
TK-10 renal = system: TK-10 renal
786-0 renal = system: 786-0 renal
HOP-62 NSCLC = system: HOP-62 NSCLC
HS 578T breast = system: HS 578T breast
NCI/ADR-RES ovarian = system: NCI/ADR-RES ovarian
T-47D breast = system: T-47D breast
SNB-75 CNS = system: SNB-75 CNS
MALME-3M melanoma = system: MALME-3M melanoma
UACC-62 melanoma = system: UACC-62 melanoma

O=C(Cc1ccc(-c2ccc(OCCN3CCOCC3)cc2)cn1)NCc1ccccc1
GI50 (SF-268 CNS): 35.2 nM | TGI (SF-268 CNS): 513 nM | GI50 (SR leukemia): 12.3 nM | TGI (SR leukemia): 25.6 nM | GI50 (EKVX NSCLC): 42.4 nM | TGI (EKVX NSCLC): 99400 nM | GI50 (K-562 leukemia): 19.8 nM | TGI (K-562 leukemia): 54.1 nM | GI50 (NCI-H23 lung): 22.8 nM | TGI (NCI-H23 lung): 60.3 nM | GI50 (A498 renal): 31.8 nM | TGI (A498 renal): 625 nM | GI50 (UACC-257 melanoma): 45.7 nM | TGI (UACC-257 melanoma): 43700 nM | GI50 (OVCAR-3 ovarian): 17.4 nM | TGI (OVCAR-3 ovarian): 41.7 nM | GI50 (HT29 colon): 28.3 nM | TGI (HT29 colon): > 100000 nM | GI50 (KM12 colon): 30 nM | TGI (KM12 colon): 2010 nM | GI50 (MDA-MB-468 breast): 15.6 nM | TGI (MDA-MB-468 breast): 30.6 nM | GI50 (SW-620 colon): 30.7 nM | TGI (SW-620 colon): > 100000 nM | GI50 (DU-145 prostate): 30.2 nM | TGI (DU-145 prostate): 174 nM | GI50 (HL-60(TB) leukemia): 16.1 nM | TGI (HL-60(TB) leukemia): 29.7 nM | GI50 (M14 melanoma): 18.5 nM | TGI (M14 melanoma): 42.2 nM | GI50 (SN12C renal): 38.9 nM | TGI (SN12C renal): 16600 nM | GI50 (MDA-MB-231 breast): 53.2 nM | TGI (MDA-MB-231 breast): > 100000 nM | GI50 (OVCAR-5 ovarian): 80 nM | TGI (OVCAR-5 ovarian): > 100000 nM | GI50 (SK-OV-3 ovarian): 32.7 nM | TGI (SK-OV-3 ovarian): 2670 nM | GI50 (HCT-116 colon): 31.8 nM | TGI (HCT-116 colon): 709 nM | GI50 (NCI-H460 NSCLC): 20.2 nM | TGI (NCI-H460 NSCLC): 45.4 nM | GI50 (RXF 393 renal): 17.5 nM | TGI (RXF 393 renal): 39.7 nM | GI50 (MCF7 breast): 49.9 nM | TGI (MCF7 breast): 7190 nM | GI50 (NCI-H522 lung): 17.6 nM | TGI (NCI-H522 lung): 44.9 nM | GI50 (SK-MEL-5 melanoma): 20.3 nM | TGI (SK-MEL-5 melanoma): 46.6 nM | GI50 (LOX IMVI melanoma): 49.8 nM | TGI (LOX IMVI melanoma): 298 nM | GI50 (HCT-15 colon): 32.1 nM | TGI (HCT-15 colon): 163 nM | GI50 (SNB-19 CNS): 41.3 nM | TGI (SNB-19 CNS): 3110 nM | GI50 (OVCAR-4 ovarian): 41.1 nM | TGI (OVCAR-4 ovarian): 39700 nM | GI50 (A549 NSCLC): 50.2 nM | TGI (A549 NSCLC): > 100000 nM | GI50 (HOP-92 NSCLC): 38.1 nM | TGI (HOP-92 NSCLC): 2950 nM | GI50 (SF-539 CNS): 21.4 nM | TGI (SF-539 CNS): 53.7 nM | GI50 (RPMI-8226 leukemia): 14.2 nM | TGI (RPMI-8226 leukemia): 27.7 nM | GI50 (SF-295 CNS): 15.7 nM | TGI (SF-295 CNS): 38 nM | GI50 (CCRF-CEM leukemia): 18.4 nM | TGI (CCRF-CEM leukemia): 33.3 nM | GI50 (OVCAR-8 ovarian): 31.4 nM | TGI (OVCAR-8 ovarian): 134 nM | GI50 (CAKI-1 renal): 40.1 nM | TGI (CAKI-1 renal): > 100000 nM | GI50 (SK-MEL-28 melanoma): 38.6 nM | TGI (SK-MEL-28 melanoma): > 100000 nM | GI50 (NCI-H226 lung): 34.6 nM | TGI (NCI-H226 lung): 220 nM | GI50 (ACHN renal): 80.1 nM | TGI (ACHN renal): 45100 nM | GI50 (PC-3 prostate): 34.5 nM | TGI (PC-3 prostate): > 100000 nM | GI50 (U251 glioblastoma): 32 nM | TGI (U251 glioblastoma): 150 nM | GI50 (MOLT-4 leukemia): 15.3 nM | TGI (MOLT-4 leukemia): 29.8 nM | GI50 (BT-549 breast): 28.3 nM | TGI (BT-549 breast): 179 nM | GI50 (HCC-2998 colon): 20.4 nM | TGI (HCC-2998 colon): 133 nM | GI50 (UO-31 renal): 66.5 nM | TGI (UO-31 renal): > 100000 nM | GI50 (NCI-H322M lung): 38.1 nM | TGI (NCI-H322M lung): 71600 nM | GI50 (IGROV1 ovarian): 61.2 nM | TGI (IGROV1 ovarian): 54400 nM | GI50 (COLO 205 colon): 16.3 nM | TGI (COLO 205 colon): 34.5 nM | GI50 (MDA-MB-435 melanoma): 15.1 nM | TGI (MDA-MB-435 melanoma): 30.7 nM | GI50 (TK-10 renal): 39.9 nM | TGI (TK-10 renal): 45900 nM | GI50 ([…]-0 renal): 32.3 nM | TGI (786-0 renal): 220 nM | GI50 (HOP-62 NSCLC): 29.8 nM | TGI (HOP-62 NSCLC): 3420 nM | GI50 (HS 578T breast): 18.6 nM | TGI (HS 578T breast): 38.9 nM | GI50 (NCI/ADR-RES ovarian): 17.7 nM | TGI (NCI/ADR-RES ovarian): 39.3 nM

O=c1[nH]c(=O)n(C2CC(O)C(CO)O2)cc1F (configuration not stated)
GI50 (SF-268 CNS): 13 nM | GI50 (K-562 leukemia): 351 nM | TGI (K-562 leukemia): 9400 nM | GI50 (NCI-H23 lung): 112 nM | TGI (A498 renal): 59500 nM | GI50 (HT29 colon): 53.9 nM | GI50 (KM12 colon): 844 nM | GI50 (MDA-MB-468 breast): 13.7 nM | TGI (MDA-MB-468 breast): 53.7 nM | GI50 (T-47D breast): 11500 nM | GI50 (SW-620 colon): 28.7 nM | GI50 (DU-145 prostate): 35.9 nM | GI50 (HL-60(TB) leukemia): 25.5 nM | TGI (HL-60(TB) leukemia): 115 nM | GI50 (M14 melanoma): 104 nM | GI50 (SN12C renal): 28.9 nM | TGI (SN12C renal): 238 nM | GI50 (MDA-MB-231 breast): 444 nM | GI50 (SNB-75 CNS): 16.9 nM | GI50 (OVCAR-5 ovarian): 321 nM | GI50 (SK-OV-3 ovarian): 112 nM | GI50 (HCT-116 colon): 52.9 nM | TGI (HCT-116 colon): 40600 nM | GI50 (RXF 393 renal): 2920 nM | TGI (RXF 393 renal): 25900 nM | GI50 (LOX IMVI melanoma): 35.4 nM | GI50 (HCT-15 colon): 55.1 nM | GI50 (SNB-19 CNS): 39.4 nM | GI50 (OVCAR-4 ovarian): 27400 nM | GI50 (A549 NSCLC): 31.8 nM | GI50 (MALME-3M melanoma): 3990 nM | GI50 (HOP-92 NSCLC): 2480 nM | GI50 (SF-539 CNS): 11.2 nM | TGI (SF-539 CNS): 102 nM | GI50 (SF-295 CNS): 13.2 nM | TGI (SF-295 CNS): 53.2 nM | GI50 (CCRF-CEM leukemia): 23.8 nM | TGI (CCRF-CEM leukemia): 97.2 nM | GI50 (OVCAR-8 ovarian): 79.8 nM | GI50 (CAKI-1 renal): 69.5 nM | GI50 (SK-MEL-28 melanoma): 101 nM | TGI (SK-MEL-28 melanoma): 3610 nM | GI50 (ACHN renal): 30.2 nM | GI50 (PC-3 prostate): 90.4 nM | GI50 (U251 glioblastoma): 112 nM | GI50 (UACC-62 melanoma): 177 nM | TGI (MOLT-4 leukemia): 15.7 nM | TGI (BT-549 breast): 2780 nM | GI50 (UO-31 renal): 26.1 nM | GI50 (NCI-H322M lung): 345 nM | GI50 (IGROV1 ovarian): 559 nM | GI50 (MDA-MB-435 melanoma): 1380 nM | GI50 (TK-10 renal): 721 nM | GI50 ([…]-0 renal): 69.9 nM | GI50 (HS 578T breast): 28.2 nM | TGI (HS 578T breast): 171 nM | GI50 (NCI/ADR-RES ovarian): 214 nM
